The target in assay [1] is GST-Syk Full Protein (human) (Homo sapiens, UniProt P43405). The experiment in a line: Syk kinase inhibition test (HTRF method). The format is biochemical. The note with it: Tables 1-x, compounds A; read-out: sykHTRF ave IC50. In a few lines: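 Human GST-Syk full-length (6.4 nM) phosphorylated biotin-EDPDYEWPSA-NH2 (250 nM) with 100 μM ATP in HEPES pH 7.0/MgCl2 buffer, 2% DMSO, 30 min at room temperature. EDTA stop, then HTRF detection (streptavidin-XL665, Eu anti-phosphotyrosine) after 1 h; 665/620 ratio read.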
Background: TR-FRET usually uses a lanthanide donor and a delayed reading to cut background.

The test system of assay [2] is cultured human mast cells. The experiment in a line: Degranulation inhibition test using cultured human mast cells (IgE cross-linking, β-Hexosaminidase release). The format is cell-based. To be noted: Mast cell; Tables 1-x, compounds A; cultured human mast cells; read-out: human degranulation ave. IC50. In a few lines:
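CD34+ cord-blood cells cultured ≥8 weeks with SCF/IL-6/IL-3; FcεRI primed 5 days with rhIL-4 (1 ng/mL) and hIgE (0.5 μg/mL). Compound (0.1% DMSO) preincubated 10 min at 37 °C, then anti-IgE (final 10 μg/mL) 30 min; released β-hexosaminidase read at 405 nm versus total lysate, IC50 (M).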

Where a name gives a salt, the structure may show the parent alone. Some results are limits rather than exact numbers.

For orientation: IC50 means the concentration that inhibits the measured activity by half.

`Cc1ccnc(Nc2cccc(-c3cnc(N4CCCC(C(=O)NCCO)C4)s3)n2)c1` (stereo not shown) [Compound A-478, N-(2-hydroxyethyl)-1-{5-[6-(4-methylpyridin-2-ylamino)pyridin-2-yl]thiazol-2-yl}piperidine-3-carboxamide]: the IC50 was under 100 nM in assay [1] and 100 to 1000 nM in assay [2].

On to `Cc1ccnc(Nc2cccc(-c3cnc(N4CC[C@@H](O)C4)s3)n2)c1` [Compound A-479, (R)-1-{5-[6-(4-methylpyridin-2-ylamino)pyridin-2-yl]thiazol-2-yl}pyrrolidin-3-ol], for which the IC50 is under 100 nM in assay [1] and 100 to 1000 nM in assay [2].

With `Cc1ccnc(Nc2cccc(-c3cnc(N(C)[C@H]4CC[C@H](O)CC4)s3)n2)c1` [Compound A-480, trans-4-(N-methyl-N-{5-[6-(4-methylpyridin-2-ylamino)pyridin-2-yl]thiazol-2-yl}amino)cyclohexanol], the IC50 was under 100 nM in assay [1] and 100 to 1000 nM in assay [2].

Regarding `Cc1ccnc(Nc2cccc(-c3cnc(N4CCC(NC(=O)CO)CC4)s3)n2)c1` [Compound A-482, 2-hydroxy-N-(1-{5-[6-(4-methylpyridin-2-ylamino)pyridin-2-yl]thiazol-2-yl}piperidin-4-yl)acetamide], the IC50 in assay [1] was under 100 nM; in assay [2], 100 to 1000 nM.

On to `Cc1ccnc(Nc2cccc(-c3cnc(N4CCC(N(C)C(=O)CO)CC4)s3)n2)c1` [Compound A-483, 2-hydroxy-N-methyl-N-(1-{5-[6-(4-methylpyridin-2-ylamino)pyridin-2-yl]thiazol-2-yl}piperidin-4-yl)acetamide], for which the IC50 is under 100 nM in assay [1] and 100 to 1000 nM in assay [2].

Take `Cc1ccnc(Nc2cccc(-c3cnc(N4CCC(CNC(=O)CO)CC4)s3)n2)c1` [Compound A-486, 2-hydroxy-N-(1-{5-[6-(4-methylpyridin-2-ylamino)pyridin-2-yl]thiazol-2-yl}piperidin-4-ylmethyl)acetamide]: the half-maximal inhibitory concentration (IC50) in assay [1] is under 100 nM; in assay [2], 100 to 1000 nM.

In the case of `CC(=O)NCC1CCN(c2ncc(-c3cccc(Nc4cc(C)ccn4)n3)s2)CC1` [Compound A-487, N-(1-{5-[6-(4-methylpyridin-2-ylamino)pyridin-2-yl]thiazol-2-yl}piperidin-4-ylmethyl)acetamide], the IC50 was under 100 nM in assay [1] and 100 to 1000 nM in assay [2].

On to `CNC(=O)[C@@H]1CCCN1c1ncc(-c2cccc(Nc3cc(C)ccn3)n2)s1` [Compound A-488, N-methyl-(S)-1-{5-[6-(4-methylpyridin-2-ylamino)pyridin-2-yl]thiazol-2-yl}pyrrolidine-2-carboxamide dihydrochloride], for which the IC50 is under 100 nM in assay [1] and 100 to 1000 nM in assay [2].

Turning to `Cc1ccnc(Nc2cccc(-c3cnc(N4CC[C@@H](NS(C)(=O)=O)C4)s3)n2)c1` [Compound A-489, N—((R)-1-{5-[6-(4-methylpyridin-2-ylamino)pyridin-2-yl]thiazol-2-yl}pyrrolidin-3-yl)methanesulfonamide], the results for the IC50 in assay [1] and in assay [2] were under 100 nM and 100 to 1000 nM, respectively.

For the compound `CO[C@@H]1CCN(c2ncc(-c3cccc(Nc4cc(C)ccn4)n3)s2)C1` [Compound A-490, N-{6-[2-((R)-3-methoxypyrrolidin-1-yl)thiazol-5-yl]pyridin-2-yl}-N-(4-methylpyridin-2-yl)amine], the IC50 in assay [1] is under 100 nM; in assay [2], 100 to 1000 nM.

As for `Cc1ccnc(Nc2cccc(-c3cnc(N4CCCC(COCC(=O)O)C4)s3)n2)c1` (stereo not shown) [Compound A-497, (1-{5-[6-(4-methylpyridin-2-ylamino)pyridin-2-yl]thiazol-2-yl}piperidin-3-ylmethoxy)acetic acid dihydrochloride], the IC50 in assay [1] is under 100 nM; in assay [2], over 1000 nM.

For the compound `Cc1ccnc(Nc2cccc(-c3cnc(N4CCCC(CO)C4)s3)n2)c1` (stereo not shown) [Compound A-498, (1-{5-[6-(4-methylpyridin-2-ylamino)pyridin-2-yl]thiazol-2-yl}piperidin-3-yl)methanol], the IC50 in assay [1] is under 100 nM; in assay [2] it was 100 to 1000 nM.

Consider `Cc1ccnc(Nc2cccc(-c3cnc(N4CCCC(COCC(N)=O)C4)s3)n2)c1` (stereo not shown) [Compound A-499, 2-(1-{5-[6-(4-methylpyridin-2-ylamino)pyridin-2-yl]thiazol-2-yl}piperidin-3-ylmethoxy)acetamide], for which the results for the IC50 in assay [1] and in assay [2] were under 100 nM and 100 to 1000 nM, respectively.

As to `Cc1ccnc(Nc2cccc(-c3cnc(N4CCC(C)(C(N)=O)CC4)s3)n2)c1` [Compound A-500, 4-methyl-1-{5-[6-(4-methylpyridin-2-ylamino)pyridin-2-yl]thiazol-2-yl}piperidine-4-carboxamide], the IC50 was under 100 nM in assay [1] and 100 to 1000 nM in assay [2].

As for `CNC(=O)C1(C)CCN(c2ncc(-c3cccc(Nc4cc(C)ccn4)n3)s2)CC1` [Compound A-501, N-methyl-4-methyl-1-{5-[6-(4-methylpyridin-2-ylamino)pyridin-2-yl]thiazol-2-yl}piperidine-4-carboxamide], the IC50 in assay [1] was under 100 nM; in assay [2], 100 to 1000 nM.

In the case of `CNC(=O)COCC1CCCN(c2ncc(-c3cccc(Nc4cc(C)ccn4)n3)s2)C1` (stereo not shown) [Compound A-502, N-methyl-2-(1-{5-[6-(4-methylpyridin-2-ylamino)pyridin-2-yl]thiazol-2-yl}piperidin-3-ylmethoxy)acetamide], the IC50 in assay [1] is under 100 nM; in assay [2], 100 to 1000 nM.

Turning to `Cc1ccnc(Nc2cccc(-c3cnc(N4CCC(C)(C(=O)NCCO)CC4)s3)n2)c1` [Compound A-503, N-(2-hydroxyethyl)-4-methyl-1-{5-[6-(4-methylpyridin-2-ylamino)pyridin-2-yl]thiazol-2-yl}-piperidine-4-carboxamide], the IC50 in assay [1] is under 100 nM; in assay [2], 100 to 1000 nM.

Regarding `Cc1ccnc(Nc2cccc(-c3cnc(N4CCC(CC(N)=O)CC4)s3)n2)c1` [Compound A-504, 2-(1-{5-[6-(4-methylpyridin-2-ylamino)pyridin-2-yl]thiazol-2-yl}piperidin-4-yl)acetamide], the IC50 was under 100 nM in assay [1] and 100 to 1000 nM in assay [2].

Consider `CNC(=O)CC1CCN(c2ncc(-c3cccc(Nc4cc(C)ccn4)n3)s2)CC1` [Compound A-505, N-methyl-2-(1-{5-[6-(4-methylpyridin-2-ylamino)pyridin-2-yl]thiazol-2-yl}piperidin-4-yl)acetamide], for which the values for the IC50 in assay [1] and in assay [2] were under 100 nM and 100 to 1000 nM, respectively.

As for `Cc1ccnc(Nc2cccc(-c3cnc(N4CCC(CC(=O)NCCO)CC4)s3)n2)c1` [Compound A-506, N-(2-hydroxyethyl)-2-(1-{5-[6-(4-methylpyridin-2-ylamino)pyridin-2-yl]thiazol-2-yl}piperidin-4-yl)acetamide], the IC50 in assay [1] was under 100 nM; in assay [2], 100 to 1000 nM.

On to `CC(=O)NCCN(C)c1ncc(-c2cccc(Nc3cc(C)ccn3)n2)s1` [Compound A-508, N-[2-(N′-methyl-N′-{5-[6-(4-methylpyridin-2-ylamino)pyridin-2-yl]thiazol-2-yl}amino)ethyl]acetamide], for which the IC50 in assay [1] is under 100 nM; in assay [2], 100 to 1000 nM.

Regarding `Cc1ccnc(Nc2cccc(-c3cnc(N(C)CCNC(=O)CO)s3)n2)c1` [Compound A-509, 2-hydroxy-N-[2-(N′-methyl-{5-[6-(4-methylpyridin-2-ylamino)pyridin-2-yl]thiazol-2-yl}amino)ethyl]acetamide], the IC50 was under 100 nM in assay [1] and 100 to 1000 nM in assay [2].

In the case of `Cc1ccnc(Nc2cccc(-c3cnc(N(C)C4CCN(C(=O)c5ccc(O)cc5)CC4)s3)n2)c1` [Compound A-513, (4-hydroxyphenyl)-[4-(N-methyl-N-{5-[6-(4-methylpyridin-2-ylamino)pyridin-2-yl]thiazol-2-yl}amino)piperidin-1-yl]methanone], the values for the IC50 in assay [1] and in assay [2] were under 100 nM and 100 to 1000 nM, respectively.

For the compound `CC(=O)N1CCC(Nc2ncc(-c3cccc(Nc4cc(C)ccn4)n3)s2)CC1` [Compound A-514, 1-(4-{5-[6-(4-methylpyridin-2-ylamino)pyridin-2-yl]thiazol-2-ylamino}piperidin-1-yl)ethanone], the IC50 in assay [1] was under 100 nM; in assay [2], 100 to 1000 nM.

Turning to `CC(=O)N1CCC(N(c2ncc(-c3cccc(Nc4cc(C)ccn4)n3)s2)C(C)C)CC1` [Compound A-515, 1-[4-(N-isopropyl-N-{5-[6-(4-methylpyridin-2-ylamino)pyridin-2-yl]thiazol-2-yl}amino)piperidin-1-yl]ethanone], the IC50 is under 100 nM in assay [1] and over 1000 nM in assay [2].

Regarding `CNC(=O)CO[C@@H]1CCN(c2ncc(-c3cccc(Nc4cc(C)ccn4)n3)s2)C1` [Compound A-516, N-methyl-2-((R)-1-{5-[6-(4-methylpyridin-2-ylamino)pyridin-2-yl]thiazol-2-yl}pyrrolidin-3-yloxy)acetamide], the IC50 in assay [1] was under 100 nM; in assay [2], 100 to 1000 nM.

For `COc1ccnc(Nc2cccc(-c3cnc(N4CCC(C(N)=O)CC4)s3)n2)c1` [Compound A-517, 1-{5-[6-(4-methoxypyridin-2-ylamino)pyridin-2-yl]thiazol-2-yl}piperidine-4-carboxamide], the results for the IC50 in assay [1] and in assay [2] were under 100 nM and 100 to 1000 nM, respectively.

`NC(=O)C1CCN(c2ncc(-c3cccc(Nc4cc(Cl)ccn4)n3)s2)CC1` [Compound A-518, 1-{5-[6-(4-chloropyridin-2-ylamino)pyridin-2-yl]thiazol-2-yl}piperidine-4-carboxamide]: the IC50 in assay [1] and in assay [2] was under 100 nM in each case.

`Cc1ccnc(Nc2cccc(-c3cnc(N(C)CCO)s3)n2)c1` [Compound A-519, 2-(N-methyl-N-{5-[6-(4-methylpyridin-2-ylamino)pyridin-2-yl]thiazol-2-yl}amino)ethanol]: the IC50 in assay [1] and in assay [2] was under 100 nM throughout.

For the origin of these results see US7803801B2, “Aminopyridine compounds having Syk inhibitory activity” (Japan Tobacco, Inc., priority 2005, dated 2010).
